According to patent publication US10456407B2, “Combination therapy for treating cancer” (Epizyme, Inc., priority 2015, dated 2019):

Test system: WSU-DLCL2 cells
Assay: RT2 Glucocorticoid signaling PCR array, WSU-DLCL2 (WSU) cell line (Table 4c)
Format: cell-based

CCN(c1cc(-c2ccc(CN3CCOCC3)cc2)cc(C(=O)NCc2c(C)cc(C)[nH]c2=O)c1C)C1CCOCC1 [Compound 44]
Ct Values, MERTK (gene MERTK): 31.323
ΔCT (B2M), MERTK (gene MERTK): 11.638
Ct Values, MT2A (gene MT2A): 23.499
ΔCT (B2M), MT2A (gene MT2A): 3.814
ΔΔCT, MT2A (gene MT2A, compared to DMSO): −1.453
Ct Values, NFKBIA (gene NFKBIA): 23.807
ΔCT (B2M), NFKBIA (gene NFKBIA): 4.122
ΔΔCT, NFKBIA (gene NFKBIA, compared to DMSO): 1.201
Ct Values, NR3C1 (gene NR3C1): 23.121
ΔCT (B2M), NR3C1 (gene NR3C1): 3.436
ΔΔCT, NR3C1 (gene NR3C1, compared to DMSO): −0.364
Ct Values, PDCD7 (gene PDCD7): 24.740
ΔCT (B2M), PDCD7 (gene PDCD7): 5.055
ΔΔCT, PDCD7 (gene PDCD7, compared to DMSO): 0.326
Ct Values, PDP1 (gene PDP1): 25.226
ΔCT (B2M), PDP1 (gene PDP1): 5.541
ΔΔCT, PDP1 (gene PDP1, compared to DMSO): −0.380
Ct Values, PER1 (gene PER1): 25.820
ΔCT (B2M), PER1 (gene PER1): 6.135
ΔΔCT, PER1 (gene PER1, compared to DMSO): 0.476
Ct Values, PER2 (gene PER2): 24.837
ΔCT (B2M), PER2 (gene PER2): 5.152
ΔΔCT, PER2 (gene PER2, compared to DMSO): 0.151
Ct Values, PIK3R1 (gene PIK3R1): 24.332
ΔCT (B2M), PIK3R1 (gene PIK3R1): 4.647
ΔΔCT, PIK3R1 (gene PIK3R1, compared to DMSO): 0.363
Ct Values, PLEKHF1 (gene PLEKHF1): 28.660
ΔCT (B2M), PLEKHF1 (gene PLEKHF1): 8.975
ΔΔCT, PLEKHF1 (gene PLEKHF1, compared to DMSO): 1.220
Ct Values, POU2F1 (gene POU2F1): 24.671
ΔCT (B2M), POU2F1 (gene POU2F1): 4.986
ΔΔCT, POU2F1 (gene POU2F1, compared to DMSO): 0.202
Ct Values, POU2F2 (gene POU2F2): 22.678
ΔCT (B2M), POU2F2 (gene POU2F2): 2.993
ΔΔCT, POU2F2 (gene POU2F2, compared to DMSO): −0.680
Ct Values, RASA3 (gene RASA3): 23.208
ΔCT (B2M), RASA3 (gene RASA3): 3.523
ΔΔCT, RASA3 (gene RASA3, compared to DMSO): −0.979
Ct Values, RGS2 (gene RGS2): 24.869
ΔCT (B2M), RGS2 (gene RGS2): 5.184
ΔΔCT, RGS2 (gene RGS2, compared to DMSO): 1.732
Ct Values, RHO8 (gene RHO8): 27.234
ΔCT (B2M), RHO8 (gene RHO8): 7.549
ΔΔCT, RHO8 (gene RHO8, compared to DMSO): −2.725
Ct Values, RPLP0 (gene RPLP0): 15.651
ΔCT (B2M), RPLP0 (gene RPLP0): −4.004
Ct Values, SESN1 (gene SESN1): 25.215
ΔCT (B2M), SESN1 (gene SESN1): 5.530
ΔΔCT, SESN1 (gene SESN1, compared to DMSO): −3.709
Ct Values, SGK1 (gene SGK1): 28.624
ΔCT (B2M), SGK1 (gene SGK1): 8.939
ΔΔCT, SGK1 (gene SGK1, compared to DMSO): 2.810
Ct Values, SLC10A6 (gene SLC10A6): 35.684
ΔCT (B2M), SLC10A6 (gene SLC10A6): 15.999
ΔΔCT, SLC10A6 (gene SLC10A6, compared to DMSO): −1.168
Ct Values, SLC19A2 (gene SLC19A2): 26.125
ΔCT (B2M), SLC19A2 (gene SLC19A2): 6.440
ΔΔCT, SLC19A2 (gene SLC19A2, compared to DMSO): −0.748
Ct Values, SLC22A5 (gene SLC22A5): 26.640
ΔCT (B2M), SLC22A5 (gene SLC22A5): 6.995
ΔΔCT, SLC22A5 (gene SLC22A5, compared to DMSO): −2.496
Ct Values, SNTA1 (gene SNTA1): 24.181
ΔCT (B2M), SNTA1 (gene SNTA1): 4.496
ΔΔCT, SNTA1 (gene SNTA1, compared to DMSO): −0.492
Ct Values, SPHK1 (gene SPHK1): 29.333
ΔCT (B2M), SPHK1 (gene SPHK1): 9.648
ΔΔCT, SPHK1 (gene SPHK1, compared to DMSO): −0.545
Ct Values, SPSB1 (gene SPSB1): 26.952
ΔCT (B2M), SPSB1 (gene SPSB1): 7.267
ΔΔCT, SPSB1 (gene SPSB1, compared to DMSO): −2.896
Ct Values, STAT5A (gene STAT5A): 25.495
ΔCT (B2M), STAT5A (gene STAT5A): 5.810
ΔΔCT, STAT5A (gene STAT5A, compared to DMSO): −0.307
Ct Values, STAT5B (gene STAT5B): 23.453
ΔCT (B2M), STAT5B (gene STAT5B): 3.768
ΔΔCT, STAT5B (gene STAT5B, compared to DMSO): −0.196
Ct Values, TBL1XR1 (gene TBL1XR1): 22.111
ΔCT (B2M), TBL1XR1 (gene TBL1XR1): 2.426
ΔΔCT, TBL1XR1 (gene TBL1XR1, compared to DMSO): 0.274
Ct Values, TNF (gene TNF): 25.079
ΔCT (B2M), TNF (gene TNF): 5.394
ΔΔCT, TNF (gene TNF, compared to DMSO): 1.150
Ct Values, TNFAIP3 (gene TNFAIP3): 26.903
ΔCT (B2M), TNFAIP3 (gene TNFAIP3): 7.218
ΔΔCT, TNFAIP3 (gene TNFAIP3, compared to DMSO): 1.722
Ct Values, TSC22D3 (gene TSC22D3): 25.390
ΔCT (B2M), TSC22D3 (gene TSC22D3): 5.705
ΔΔCT, TSC22D3 (gene TSC22D3, compared to DMSO): −0.359
Ct Values, USP2 (gene USP2): 21.903
ΔCT (B2M), USP2 (gene USP2): 2.218
ΔΔCT, USP2 (gene USP2, compared to DMSO): −0.978
Ct Values, USPS4 (gene USPS4): 26.807
ΔCT (B2M), USPS4 (gene USPS4): 7.122
ΔΔCT, USPS4 (gene USPS4, compared to DMSO): 0.023
Ct Values, VDR (gene VDR): 27.293
ΔCT (B2M), VDR (gene VDR): 7.608
ΔΔCT, VDR (gene VDR, compared to DMSO): −3.044
Ct Values, VLDLR (gene VLDLR): 32.346
ΔCT (B2M), VLDLR (gene VLDLR): 12.661
ΔΔCT, VLDLR (gene VLDLR, compared to DMSO): 3.859
Ct Values, ZFP36 (gene ZFP36): 25.541
ΔCT (B2M), ZFP36 (gene ZFP36): 5.856
ΔΔCT, ZFP36 (gene ZFP36, compared to DMSO): 0.939
Ct Values, ZHX3 (gene ZHX3): 24.831
ΔCT (B2M), ZHX3 (gene ZHX3): 5.146
ΔΔCT, ZHX3 (gene ZHX3, compared to DMSO): −1.178
Ct Values, ZNF281 (gene ZNF281): 23.913
ΔCT (B2M), ZNF281 (gene ZNF281): 4.228
ΔΔCT, ZNF281 (gene ZNF281, compared to DMSO): −0.329
